Test results: the CheMixHub viscosity set
“And” between values parts separate entries of the source, which are not always exact repeats. Identical values can stand only once.

Legend:
[1] = xn = mol fraction of the nth substance listed

CCCCCCCC[P+](CC)(CC)CC.Cc1nc([N+](=O)[O-])c[n-]1
100 kPa
Conditions	viscosity [mPa·s]
293.15 K	920
298.15 K	623
303.15 K	435
308.15 K	313
313.15 K	231
318.15 K	174
323.15 K	135

CC1(C)OC1C#N (stereo not given)
101 kPa
Conditions	viscosity [mPa·s]
293.15 K	1.337
298.15 K	1.223
303.15 K	1.1
313.15 K	0.938
323.15 K	0.79

ClCCCCl
Conditions	viscosity [mPa·s]
298.15 K, 101 kPa	0.9443

CCCCCCCCCCBr
101 kPa
Conditions	viscosity [mPa·s]
297.75 K	2.35
303.95 K	2.08
313.55 K	1.75

CCCC[NH3+].O=[N+]([O-])[O-]
Conditions	viscosity [mPa·s]
298 K, 101 kPa	108.5

Clc1ccc(Cl)c(Cl)c1
viscosity [mPa·s]
Conditions	303.15 K	313.15 K	318.15 K
100 kPa	–	1.472	1.329
101 kPa	1.785	1.472	1.329

CCCCCCCCCCN
Conditions	viscosity [mPa·s]
303.15 K, 101 kPa	1.766

CCCC(C)CO (stereo not given)
Conditions	viscosity
298.15 K, 101.33 kPa	5.304 mPa·s and 5.304 mPa·s

CCN(CC)c1ccccc1
viscosity
Conditions	298 K	298.15 K	303.15 K	308 K	308.15 K	313 K	313.15 K	318.15 K	323.15 K
101 kPa	1.919 mPa·s	1.93 mPa·s and 1.77 mPa·s and 1.93 mPa·s	1.72 mPa·s and 1.525 mPa·s	1.534 mPa·s	1.55 mPa·s	–	1.35 mPa·s	1.274 mPa·s	1.15 mPa·s and 1.07 mPa·s
101.3 kPa	1.933 mPa·s	–	–	1.547 mPa·s	–	1.41 mPa·s	–	–	–

CCCN(CCC)CCC + C1CCCCC1
viscosity [mPa·s], [1], 101 kPa
Conditions	x1 = 0.01088	x1 = 0.02001	x1 = 0.0305	x1 = 0.04057	x1 = 0.05108	x1 = 0.05957	x1 = 0.06928	x1 = 0.07872	x1 = 0.08785
303.15 K	0.8118	0.8071	0.8005	0.7936	0.7874	0.7784	0.7721	0.766	0.7599
313.15 K	0.7082	0.6992	0.6899	0.6808	0.673	0.6664	0.6605	0.6541	0.6465

FC(F)(Cl)C(F)(F)Cl
101 kPa
Conditions	viscosity [mPa·s]
293.35 K	0.3524
313.05 K	0.2877

CC[N+](CC)(CC)CC.O=C([O-])CCCC(=O)O + O=S1(=O)CCCC1
[1], 101 kPa, x1 = 0.23
Conditions	viscosity [mPa·s]
303.15 K	150.1
313.15 K	90
323.15 K	58.9

ClCCCCl + CCC(C)O
viscosity [mPa·s], [1], 101 kPa
Conditions	x1 = 0.1002	x1 = 0.2005	x1 = 0.3002	x1 = 0.4005	x1 = 0.4986	x1 = 0.6027	x1 = 0.6951	x1 = 0.8051	x1 = 0.9113
298.15 K	2.23	1.683	1.346	1.134	1.031	0.9587	0.9141	0.894	0.8997
313.15 K	1.369	1.103	0.9402	0.8403	0.7841	0.7468	0.7254	0.7214	0.7371

Clc1ccc(Cl)c(Cl)c1 + CCNc1ccccc1
viscosity [mPa·s], [1], 101 kPa
Conditions	303.15 K	308.15 K
x2 = 0.0875	1.784	1.618
x2 = 0.1559	1.783	1.615
x2 = 0.2286	1.782	1.612
x2 = 0.2938	1.781	1.609
x2 = 0.3656	1.779	1.607
x2 = 0.4225	1.777	1.604
x2 = 0.4952	1.775	1.6
x2 = 0.5659	1.772	1.595
x2 = 0.6359	1.768	1.589
x2 = 0.7025	1.763	1.584
x2 = 0.7812	1.758	1.577
x2 = 0.8525	1.752	1.571
x2 = 0.9199	1.748	1.565

CCCC(C)CO (stereo not given) + CCO
[1], 298.15 K, 101.33 kPa
Conditions	viscosity [mPa·s]
x2 = 0.1048	4.615
x2 = 0.2134	3.996
x2 = 0.3147	3.481
x2 = 0.4122	3.014
x2 = 0.5011	2.664
x2 = 0.6144	2.253
x2 = 0.7136	1.884
x2 = 0.7984	1.623
x2 = 0.9049	1.303

CCCCC(CC)COC(C)=O (stereo not given)
101.33 kPa
Conditions	viscosity [mPa·s]
293.15 K	1.471
303.15 K	1.234
313.15 K	1.051
323.15 K	0.906

CCCCCCCCCCN + c1ccccc1
[1], 303.15 K, 101 kPa
Conditions	viscosity [mPa·s]
x2 = 0.2011	1.464
x2 = 0.3988	1.174
x2 = 0.4963	1.043
x2 = 0.5993	0.923
x2 = 0.7973	0.7207

CCCN(CCC)CCC
101 kPa
Conditions	viscosity [mPa·s]
293.15 K	0.67
298.15 K	0.523
303.15 K	0.495
308.15 K	0.46
313.15 K	0.45
318.15 K	0.412
323.15 K	0.38

Cl.N=C(N)N + O
viscosity [mPa·s], [1], 101.3 kPa
Conditions	x1 = 0.0018	x1 = 0.0045	x1 = 0.0089	x1 = 0.013	x1 = 0.0177
298.15 K	0.896	0.901	0.908	0.915	0.923
308.15 K	0.722	0.727	0.735	0.742	0.748
318.15 K	0.6	0.604	0.613	0.621	0.626

CCCCCCCCCCCC(=O)OCC
viscosity
Conditions	293.15 K	303.15 K	308.15 K	313.15 K	323.15 K
100 kPa	3.374 mPa·s	–	2.43 mPa·s	2.203 mPa·s	1.827 mPa·s
101.33 kPa	3.374 mPa·s	2.695 mPa·s	2.43 mPa·s	2.203 mPa·s and 2.045 mPa·s	1.827 mPa·s

CCN(CC)c1ccccc1 + CCCCOCCO
viscosity [mPa·s], [1], 101.3 kPa
Conditions	x2 = 0.0979	x2 = 0.2008	x2 = 0.289	x2 = 0.3526	x2 = 0.4964	x2 = 0.5968	x2 = 0.7021	x2 = 0.794	x2 = 0.8979
298 K	1.87	1.887	1.923	1.968	2.102	2.198	2.343	2.461	2.631
303 K	1.679	1.686	1.711	1.756	1.853	1.942	2.067	2.175	2.305
308 K	1.511	1.516	1.538	1.572	1.655	1.731	1.844	1.927	2.048
313 K	1.369	1.371	1.393	1.429	1.487	1.552	1.65	1.725	1.824
318 K	1.248	1.249	1.262	1.286	1.365	1.402	1.481	1.544	1.631

CCOC(=O)CC(=O)OCC + O=C1CCCC1
viscosity [mPa·s], [1], 101 kPa
Conditions	x1 = 0.0758	x1 = 0.1566	x1 = 0.2437	x1 = 0.3678	x1 = 0.4601	x1 = 0.5678	x1 = 0.6456	x1 = 0.7598	x1 = 0.8459	x1 = 0.9215
303.15 K	1.061	1.125	1.193	1.288	1.356	1.433	1.487	1.565	1.624	1.675
308.15 K	0.981	1.038	1.098	1.18	1.24	1.307	1.355	1.425	1.477	1.524
313.15 K	0.913	0.964	1.018	1.094	1.15	1.213	1.257	1.321	1.369	1.412

Cc1ccc(C(C)C)c(O)c1 + CCCCCCCC(=O)O
[1], 100 kPa, x2 = 0.579
Conditions	viscosity [mPa·s]
293.15 K	9.71
298.15 K	8
303.15 K	6.68
308.15 K	5.65
313.15 K	4.83
318.15 K	4.17
323.15 K	3.64

CCCCCCCCCCCC(=O)OCC + CCCCCO
viscosity [mPa·s], [1], 101.33 kPa
Conditions	x2 = 0.1	x2 = 0.2	x2 = 0.2999	x2 = 0.4	x2 = 0.4999	x2 = 0.6	x2 = 0.7	x2 = 0.8	x2 = 0.9
293.15 K	3.228	3.128	3.064	3.018	2.992	2.994	3.044	3.147	3.437
298.15 K	2.884	2.802	2.741	2.699	2.68	2.667	2.706	2.783	3.024
303.15 K	2.603	2.515	2.46	2.424	2.387	2.383	2.403	2.479	2.663
308.15 K	2.349	2.275	2.238	2.173	2.141	2.131	2.142	2.201	2.351
313.15 K	2.12	2.065	2.014	1.954	1.926	1.913	1.919	1.963	2.074
318.15 K	1.948	1.888	1.852	1.801	1.765	1.745	1.735	1.776	1.867
323.15 K	1.759	1.699	1.658	1.601	1.569	1.546	1.553	1.584	1.652

O=S(=O)([O-])[O-].[Mg+2] + O
viscosity [mPa·s], [1]
Conditions	308.15 K	313.15 K	323.15 K
101.3 kPa, x1 = 0.00112	0.74	0.6745	0.5642
101.3 kPa, x1 = 0.002247	0.7982	0.7215	0.605
101.3 kPa, x1 = 0.004484	0.8401	0.76	0.6392
101.3 kPa, x1 = 0.008927	0.942	0.8575	0.733
101.3 kPa, x1 = 0.0177	1.094	0.955	0.8368
101.33 kPa, x1 = 0.000905	0.7405	0.675	0.5648
101.33 kPa, x1 = 0.002718	0.7988	0.722	0.6054
101.33 kPa, x1 = 0.00453	0.8405	0.7605	–
101.33 kPa, x1 = 0.006344	0.889	0.8025	0.6695
101.33 kPa, x1 = 0.008159	0.942	0.858	0.7335

CN1CCOC1=O + CS(C)=O
viscosity [mPa·s], [1], 101.33 kPa
Conditions	298.15 K	308.15 K	318.15 K
x1 = 0.0465	2.004	1.663	1.404
x1 = 0.0841	2.012	1.673	1.413
x1 = 0.1676	2.037	1.698	1.437
x1 = 0.2419	2.06	1.72	1.459
x1 = 0.3415	2.09	1.751	1.49
x1 = 0.4275	2.126	1.782	1.518
x1 = 0.5401	2.171	1.826	1.558
x1 = 0.6395	2.218	1.872	1.603
x1 = 0.7524	2.28	1.923	1.645
x1 = 0.8785	2.359	1.99	1.703
x1 = 0.9514	2.415	2.038	1.744

Cc1ccc(C(C)C)c(O)c1 + CCCCCCCCCCCCCCCCCC(=O)O
[1], 100 kPa, x2 = 0.1
Conditions	viscosity [mPa·s]
318.15 K	6.88
323.15 K	5.68

CCOC(=O)CC(=O)OCC
101 kPa
Conditions	viscosity [mPa·s]
303.15 K	1.728
308.15 K	1.57
313.15 K	1.456

S + ClC(Cl)Cl
[1], 298.15 K, 101 kPa
Conditions	viscosity [mPa·s]
x1 = 0.00673	0.5257
x1 = 0.00998	0.5206

CCCN(CCC)CCC + CCC(C)O
[1], 303.15 K, 101 kPa
Conditions	viscosity [mPa·s]
x1 = 0.009049	2.448
x1 = 0.02003	2.423
x1 = 0.02982	2.4
x1 = 0.04	2.379
x1 = 0.05207	2.352
x1 = 0.06138	2.332
x1 = 0.06704	2.317
x1 = 0.07865	2.291
x1 = 0.09178	2.264

Clc1ccc(Cl)c(Cl)c1 + Nc1ccccc1Cl
viscosity [mPa·s], [1], 101 kPa
Conditions	x2 = 0.1164	x2 = 0.2287	x2 = 0.337	x2 = 0.4415	x2 = 0.5425	x2 = 0.6402	x2 = 0.7346	x2 = 0.8259	x2 = 0.9143
303.15 K	1.936	2.118	2.307	2.504	2.708	2.919	3.137	3.361	3.59
308.15 K	1.773	1.935	2.103	2.277	2.456	2.639	2.827	3.018	3.214
313.15 K	1.614	1.761	1.912	2.067	2.226	2.388	2.553	2.72	2.889
318.15 K	1.46	1.595	1.734	1.875	2.019	2.165	2.313	2.462	2.612
